Data: publication PMC12844998, “Bridging the Knowledge Gap in Harmaline’s Pharmacological Properties: A Focus on Thermodynamics and Kinetics” (Pharmaceutics, 2025)
Where “and” joins values, the source holds several entries; their conditions need not be identical. Equal entries are not always repeated. Where two headings read alike, the source gives them in different places.

Experiments:
[1] = Equilibrium distribution coefficients in organic solvent/pH 7.4 systems, shake-flask method; assay type: physicochemical; details: for logD / logD at 24 h: read-out: log DappOctOH/pH7.4 (logD) (converted); for DappHex/pH7.4 ·10^2: value given as D×10^2
Experimental: The equilibrium distribution coefficients of HML were determined in the OctOH/pH 7.4 and Hex/pH 7.4 systems by the shake-flask method over a wide temperature range of 293.15–313.15 K. The distribution coefficient in the IPM/pH 7.4 system was obtained at 310.15 K. Before the experiment, the aqueous and organic phases were mutually pre-saturated by vigorous shaking for 24 h, equilibrated, and then carefully separated. The stock HML solutions were prepared in OctOH for the OctOH/pH 7.4 system and in pH 7.4 for both the Hex/pH 7.4 and IPM/pH 7.4 systems. The volumes of the organic and aqueous phases were selected according to the HML solubility in each solvent. The glass vials containing the two-phase system were equilibrated at constant temperature for 24 h. After this, the vials were allowed to stand for not less than 4 h, and the phases were carefully separated. The concentration of HML in each phase was measured using a UV-VIS spectrophotometer (Cary-50 Varian, Palo Alto, CA, USA; Software Version 3.00 (339)). Each experiment was carried out in three or more replicates. The standard deviation ranged from 2% to 4% of the mean. The distribution coefficients were calculated by Equation (1):(1) DappOrg/pH7.4=C2Org/pH7.4⋅V^pH7.4/Org/C2pH7.4/Org⋅V^Org/pH7.4 where DappOrg/pH7.4 is the distribution coefficient calculated using the compound concentrations in molar units, C2Org/pH7.4 and C2pH7.4/Org are the molar concentrations of the drug in the mutually saturated organic and aqueous phases, respectively, V^pH7.4/Org and V^Org/pH7.4 are the volumes of the mutually saturated buffer and organic phases, respectively. The ΔlogD parameters that characterize the drug’s hydrogen-bonding potential and reflect the impact of specific interactions on partition processes were calculated as follows:(2) ΔlogD^Oct/Hex=logDappOct/pH7.4−logDappHex/pH7.4 (3) ΔlogD^IPM/Hex=logDappIPM/pH7.4−logDappHex/pH7.4

COc1ccc2c3c([nH]c2c1)C(C)=NCC3 [HML, Harmaline]
logD ([1]; 1-octanol (OctOH)/buffer pH 7.4, pH 7.4, OctOH/pH 7.4, 310.15 K): 1.29
logD ([1]; 1-octanol (OctOH)/buffer pH 7.4, pH 7.4, OctOH/pH 7.4, 313.15 K): 1.34
decrease of distribution coefficient from OctOH/pH 7.4 to IPM/pH 7.4 system ([1]; 310.15 K): 78 fold
DappHex/pH7.4 ·10^2 ([1]; Hex/pH 7.4, 293.15 K): 1.178 ± 0.024
DappHex/pH7.4 ·10^2 ([1]; Hex/pH 7.4, 303.15 K): 1.470 ± 0.037
DappHex/pH7.4 ·10^2 ([1]; Hex/pH 7.4, 308.15 K): 1.718 ± 0.035
DappHex/pH7.4 ([1]; Hex/pH 7.4, 310.15 K, unscaled value in text): 0.022
DappHex/pH7.4 ·10^2 ([1]; Hex/pH 7.4, 310.15 K): 2.197 ± 0.044
DappHex/pH7.4 ·10^2 ([1]; Hex/pH 7.4, 313.15 K): 2.483 ± 0.050
DappIPM/pH7.4 ([1]; IPM/pH 7.4, 310.15 K): 0.25 and 0.250 ± 0.010
logD at 24 h ([1]; OctOH (octanol)/buffer pH 7.4, pH 7.4, OctOH/pH 7.4, 293.15 K): 0.973
logD at 24 h ([1]; OctOH (octanol)/buffer pH 7.4, pH 7.4, OctOH/pH 7.4, 298.15 K): 1.02
logD at 24 h ([1]; OctOH (octanol)/buffer pH 7.4, pH 7.4, OctOH/pH 7.4, 303.15 K): 1.07
logD at 24 h ([1]; OctOH (octanol)/buffer pH 7.4, pH 7.4, OctOH/pH 7.4, 308.15 K): 1.17
DappOctOH/pH7.4 ([1]; OctOH/pH 7.4, 293.15 K): 9.399 ± 0.101
DappOctOH/pH7.4 ([1]; OctOH/pH 7.4, 298.15 K): 10.376 ± 0.208
DappOctOH/pH7.4 ([1]; OctOH/pH 7.4, 303.15 K): 11.653 ± 0.233
DappOctOH/pH7.4 ([1]; OctOH/pH 7.4, 308.15 K): 14.632 ± 0.293
DappOctOH/pH7.4 ([1]; OctOH/pH 7.4, 310.15 K): 19.492 and 19.49 and 19.492 ± 0.389
DappOctOH/pH7.4 ([1]; OctOH/pH 7.4, 313.15 K): 22.138 ± 0.443
log partition 1-octanol / buffer pH 7.4 (shake-flask; pH 7.4, 293.15): 0.973 log10
log partition n-hexane / buffer pH 7.4 (shake-flask; pH 7.4, 293.15): −1.929 log10
log partition 1-octanol / buffer pH 7.4 (shake-flask; pH 7.4, 298.15): 1.016 log10
log partition n-hexane / buffer pH 7.4 (shake-flask; pH 7.4, 298.15): −1.899 log10
log partition 1-octanol / buffer pH 7.4 (shake-flask; pH 7.4, 303.15): 1.066 log10
log partition n-hexane / buffer pH 7.4 (shake-flask; pH 7.4, 303.15): −1.833 log10
log partition 1-octanol / buffer pH 7.4 (shake-flask; pH 7.4, 308.15): 1.165 log10
log partition n-hexane / buffer pH 7.4 (shake-flask; pH 7.4, 308.15): −1.765 log10
log partition 1-octanol / buffer pH 7.4 (shake-flask; pH 7.4, 310.15): 1.290 log10
log partition isopropyl myristate / buffer pH 7.4 (shake-flask; pH 7.4, 310.15): −0.602 log10
log partition n-hexane / buffer pH 7.4 (shake-flask; pH 7.4, 310.15): −1.658 log10
log partition 1-octanol / buffer pH 7.4 (shake-flask; pH 7.4, 313.15): 1.345 log10
log partition n-hexane / buffer pH 7.4 (shake-flask; pH 7.4, 313.15): −1.605 log10
